Data published in the supplement of paper PMC10307832.

Key:
Experiment in all cases: relative viability (nuclei count vs DMSO), 5 days (fraction); higher = more cells survive
[1] = compound: CN(c1ncccc1CNc1nc(Nc2ccc3c(c2)CC(=O)N3)ncc1C(F)(F)F)S(C)(=O)=O + COc1cc2c(Oc3ccc(NC(=O)C4(C(=O)Nc5ccc(F)cc5)CC4)cc3F)ccnc2cc1OCCCN1CCOCC1 [Foretinib] (partner 0.25 µM)
How it was run: (§1)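 Lung cancer cell lines were seeded in 1536-well plates and dosed by pin tool the next day, with either a single drug or a fixed anchor-drug dose combined with five library-drug doses (not always all listed) spaced in √10 steps. Five days later, one step fixed the cells and stained their nuclei (final 0.05% Triton X-100, 1% formaldehyde, 1 ug/ml Hoechst), and nuclei were counted on 4× images. Relative viability is the nuclei count in treated wells divided by the count in vehicle wells, and each value is the median of duplicate plates.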

[2] = compound: CN(c1ncccc1CNc1nc(Nc2ccc3c(c2)CC(=O)N3)ncc1C(F)(F)F)S(C)(=O)=O + NC(=O)Nc1cc(-c2cccc(F)c2)sc1C(=O)N[C@H]1CCCNC1 [AZD7762] (partner 0.2 µM)
How it was run: as §1

[3] = compound: CN(c1ncccc1CNc1nc(Nc2ccc3c(c2)CC(=O)N3)ncc1C(F)(F)F)S(C)(=O)=O + O=C(CCCCCCC(=O)Nc1ccccc1)NO [Vorinostat] (partner 1 µM)
How it was run: as §1

[4] = compound: CN(c1ncccc1CNc1nc(Nc2ccc3c(c2)CC(=O)N3)ncc1C(F)(F)F)S(C)(=O)=O + CS(=O)(=O)N1CCN(Cc2cc3nc(-c4cccc5[nH]ncc45)nc(N4CCOCC4)c3s2)CC1 [Pictilisib] (partner 1 µM)
How it was run: as §1

| Cell Line | relative viability ([1]; first compound 0.01 µM) | relative viability ([1]; first compound 0.03162 µM) | relative viability ([1]; first compound 0.1 µM) | relative viability ([1]; first compound 0.3162 µM) | relative viability ([1]; first compound 1 µM) | relative viability ([2]; first compound 0.01 µM) | relative viability ([2]; first compound 0.03162 µM) | relative viability ([2]; first compound 0.1 µM) | relative viability ([2]; first compound 0.3162 µM) | relative viability ([2]; first compound 1 µM) | relative viability ([3]; first compound 0.01 µM) | relative viability ([3]; first compound 0.03162 µM) | relative viability ([3]; first compound 0.1 µM) | relative viability ([3]; first compound 0.3162 µM) | relative viability ([3]; first compound 1 µM) | relative viability ([4]; first compound 0.01 µM) | relative viability ([4]; first compound 0.03162 µM) | relative viability ([4]; first compound 0.1 µM) | relative viability ([4]; first compound 0.3162 µM) | relative viability ([4]; first compound 1 µM) |
| --- | --- | --- | --- | --- | --- | --- | --- | --- | --- | --- | --- | --- | --- | --- | --- | --- | --- | --- | --- | --- |
| 201T | 1.06 | 1.09 | 1.09 | 0.928 | 1.02 | 0.617 | 0.582 | 0.688 | 0.654 | 0.604 | 0.971 | 0.98 | 0.915 | 0.9 | 0.923 | 0.697 | 0.666 | 0.613 | 0.675 | 0.647 |
| NCI-H838 | 1.01 | 1.06 | 1.07 | 0.882 | 0.718 | 0.994 | 0.955 | 0.964 | 0.861 | 0.933 | 0.715 | 0.731 | 0.94 | 0.589 | 0.437 | 0.431 | 0.482 | 0.471 | 0.448 | 0.395 |
| PC-14 | 1.01 | 1.04 | 1.01 | 1.07 | 1 | 0.393 | 0.443 | 0.426 | 0.385 | 0.311 | 0.75 | 0.764 | 0.692 | 0.811 | 0.653 | 0.829 | 0.872 | 0.716 | 0.66 | 0.533 |
| LK-2 | 1.02 | 1.06 | 1.21 | 1.3 | 1.52 | 0.542 | 0.517 | 0.413 | 0.434 | 0.397 | 0.215 | 0.314 | 0.269 | 0.218 | 0.309 | 0.585 | 0.625 | 0.586 | 0.794 | 0.462 |
| NCI-H1944 | 0.771 | 0.941 | 0.87 | 0.938 | 0.79 | 0.723 | 0.571 | 0.602 | 0.672 | 0.658 | 0.587 | 0.508 | 0.586 | 0.585 | 0.534 | 0.356 | 0.352 | 0.335 | 0.342 | 0.396 |
| HCC-78 | 0.543 | 0.571 | 0.533 | 0.562 | 0.514 | 0.859 | 0.646 | 0.644 | 0.565 | 0.521 | 0.526 | 0.47 | 0.431 | 0.414 | 0.403 | 0.228 | 0.167 | 0.216 | 0.188 | 0.165 |
| NCI-H2405 | 1.02 | 1.07 | 0.976 | 0.886 | 0.82 | 0.702 | 0.69 | 0.749 | 0.573 | 0.626 | 0.961 | 0.724 | 0.971 | 0.761 | 0.868 | 0.552 | 0.393 | 0.42 | 0.383 | 0.376 |
| EMC-BAC-2 | 0.933 | 1.18 | 0.989 | 0.944 | 0.943 | 1.17 | 1.08 | 1.1 | 1.11 | 1.14 | 0.46 | 0.229 | 0.446 | 0.44 | 0.443 | 0.576 | 0.505 | 0.465 | 0.528 | 0.5 |
| NCI-H596 | 0.848 | 0.859 | 0.863 | 0.806 | 0.861 | 0.999 | 1.1 | 0.948 | 1.05 | 1.05 | 0.586 | 0.616 | 0.566 | 0.557 | 0.69 | 0.409 | 0.37 | 0.428 | 0.456 | 0.37 |
| LCLC-97TM1 | 0.97 | 0.986 | 0.867 | 0.864 | 0.844 | 0.264 | 0.278 | 0.218 | 0.267 | 0.195 | 0.644 | 0.82 | 0.609 | 0.751 | 0.586 | – | 0.23 | 0.196 | 0.159 | 0.148 |
| H3255 | 0.88 | 0.818 | 0.867 | 0.981 | 0.769 | 0.938 | 0.871 | 0.935 | 0.934 | 0.81 | 0.881 | 0.931 | 0.767 | 0.796 | 0.743 | 0.422 | 0.537 | 0.413 | 0.505 | 0.382 |
| LXF-289 | 1.04 | 1.01 | 1.02 | 1.04 | 0.968 | 1.16 | 1.17 | 1.1 | 1.13 | 1.2 | 0.887 | 0.787 | 0.782 | 0.697 | 0.792 | 0.834 | 0.937 | 0.75 | 0.677 | 0.737 |
| LC-2-ad | 0.851 | 0.865 | 0.967 | 0.939 | 0.933 | 0.864 | 0.808 | 0.892 | 0.768 | 0.811 | 0.739 | 0.756 | 0.674 | 0.635 | 0.584 | 0.567 | 0.552 | 0.647 | 0.928 | 0.66 |
| A-427 | 1.04 | 1.18 | 1.01 | 1.16 | 1.07 | 0.798 | 0.81 | 0.874 | 1.14 | 0.907 | 0.892 | 0.874 | 0.878 | 0.903 | 0.859 | 0.69 | 0.753 | 0.638 | 0.73 | 0.667 |
| NCI-H322M | 1.05 | 1.09 | 0.986 | 1.21 | 1.31 | 0.584 | 0.556 | 0.62 | 0.663 | 0.813 | 0.883 | 0.875 | 0.916 | 0.97 | 0.98 | 0.495 | 0.48 | – | 0.593 | 0.553 |
| HCC-366 | 0.899 | 0.925 | 0.942 | 0.982 | 0.781 | 0.378 | 0.329 | 0.319 | 0.288 | 0.34 | 0.412 | 0.394 | 0.365 | 0.366 | 0.295 | 0.108 | 0.155 | 0.0871 | 0.197 | 0.19 |
